# According to patent US10131675B2 (Genentech, Inc., priority 2015, dated 2018):
# pKi: −log10 of the molar value.
# Target: DLK (Homo sapiens (Human), UniProt Q12852)
# Test: DLK TR-FRET Inhibition Assay
# Type: biochemical
# Settings: N-terminally GST-tagged DLK (catalytic domain amino acid 1-520), MKK4 K131M substrate, 30 μM ATP; read-out: DLK HTRF Ki
# Description: DLK kinase reactions (20 μL) containing 5 nM N-terminally GST-tagged DLK (catalytic domain amino acid 1-520) (Carna Bioscience), 40 nM N-terminally HIS tagged MKK4 K131M substrate, and 30 μM ATP in kinase reaction buffer (50 mM HEPES, pH 7.5, 0.01% Triton X-100, 0.01% Bovine γ-Globulins, 2 mM DTT, 10 mM MgCl2 and 1 mM EGTA), and testing compound 1:3 serial diluted starting at 20 uM were incubated at ambient temperature for 60 minutes in 384 well OptiPlate (Perkin Elmer). To quench kinase reactions and detect phosphorylated MKK4, 15 μL of TR-FRET antibody mixture containing 2 nM anti-phosphorylated MKK4 labeled with Europium cryptate (Cisbio) and 23 nM anti-HIS labeled with D2 (Cisbio) in detection buffer (25 mM Tris pH 7.5, 100 mM NaCl, 100 mM EDTA, 0.01% Tween-20, and 200 mM KF) was added to the reaction mixture. The detection mixture was incubated for 3 hours at ambient temperature and the TR-FRET was detected with an EnVision multilabel plate reader (Perkin-Elmer) using the LANCE/DELFIA Dual Enh label from Perkin-Elmer (excitation filter: UV2 (TRF) 320 and emission filters: APC 665 and Europium 615).
# DLK, sequence (Q12852 1-520): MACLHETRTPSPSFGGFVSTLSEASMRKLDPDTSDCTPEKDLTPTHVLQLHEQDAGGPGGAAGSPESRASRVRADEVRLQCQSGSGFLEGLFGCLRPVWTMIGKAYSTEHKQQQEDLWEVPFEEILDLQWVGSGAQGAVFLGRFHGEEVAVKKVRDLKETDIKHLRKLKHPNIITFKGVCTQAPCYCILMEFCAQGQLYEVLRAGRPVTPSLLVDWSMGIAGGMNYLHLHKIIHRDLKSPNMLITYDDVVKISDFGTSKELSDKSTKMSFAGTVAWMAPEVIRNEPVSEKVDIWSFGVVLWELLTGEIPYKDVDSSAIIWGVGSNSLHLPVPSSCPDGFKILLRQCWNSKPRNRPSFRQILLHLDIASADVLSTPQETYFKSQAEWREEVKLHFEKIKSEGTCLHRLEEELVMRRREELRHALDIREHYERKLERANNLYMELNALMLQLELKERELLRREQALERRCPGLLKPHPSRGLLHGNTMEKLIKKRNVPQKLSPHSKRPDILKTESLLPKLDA
row,SMILES,pKi
1,"CC1(C)OCCn2c1nc1c(N3CCC4(CCOC4)C3)nc(-c3cnc(N)nc3)nc12 (stereo not drawn) [Example 12, 5-[8,8-Dimethyl-1-(2-oxa-7-aza-spiro[4.4]non-7-yl)-5,6-dihydro-8H-7-oxa-2,4,4b,9-tetraaza-fluoren-3-yl]-pyrimidin-2-ylamine]",6.23
2,"CCC1CCCN1c1nc(-c2cnc(N)nc2)nc2c1nc1n2CCOC1(C)C (stereo not drawn) [Example 24, 5-[1-(2-Ethyl-pyrrolidin-1-yl)-8,8-dimethyl-5,6-dihydro-8H-7-oxa-2,4,4b,9-tetraaza-fluoren-3-yl]-pyrimidin-2-ylamine]",6.53
3,"CC1(C)OCCn2c1nc1c(N3CCC4(COC4)C3)nc(-c3cnc(N)nc3)nc12 [Example 8, 5-[8,8-Dimethyl-1-(2-oxa-6-aza-spiro[3.4]oct-6-yl)-5,6-hydro-8H-7-oxa-2,4,4b,9-tetraaza-fluoren-3-yl]-pyrimidin-2-ylamine]",6.33
4,"CC1(C)OCCn2c1nc1c(N3CC4CCC3C4)nc(-c3cnc(N)nc3)nc12 (stereo not drawn) [Example 33, 5-[1-(2-Aza-bicyclo[2.2.1]hept-2-yl)-8,8-dimethyl-5,6-dihydro-8H-7-oxa-2,4,4b,9-tetraaza-fluoren-3-yl]-pyrimidin-2-ylamine]",7.04
5,CC1(C)OCCn2c1nc1c(N3CCC(F)(F)C3)nc(-c3cnc(N)nc3)nc12 [Example 76],7.01
6,"COC1CN(c2nc(-c3cnc4[nH]cc(C(F)(F)F)c4c3)nc3c2nc2n3CCOCC2)C1 [Example 131, 4-(3-methoxyazetidin-1-yl)-2-(3-(trifluoromethyl)-1H-pyrrolo[2,3-b]pyridin-5-yl)-6,7,9,10-tetrahydro-[1,4]oxazepino[4,5-e]purine]",7.22
7,"C[C@@H]1OCCn2c1nc1c(N3CC4CC3C4)nc(-c3cnc(N)nc3)nc12 (single isomer, unassigned) [Example 107]",7.22
8,"CC(C)N(c1nc(-c2cnc(N)nc2)nc2c1nc1n2CCOC1(C)C)C1CC1 [Example 63, 2-(2-aminopyrimidin-5-yl)-N-cyclopropyl-N-isopropyl-6,6-dimethyl-8,9-dihydro-6H-[1,4]oxazino[4,3-e]purin-4-amine]",6.25
9,CC1(C)OCCn2c1nc1c(N3CCC(F)(F)C3)nc(-c3cnc4ccnn4c3)nc12 [Example 83],6.30
10,CC1(C)OCCn2c1nc1c(N3CC(C#N)C3)nc(-c3cnc4[nH]cc(F)c4c3)nc12 [Example 152],6.74
11,"CC1(C)OCCn2c1nc1c(N3CC4CC3C4)nc(-c3cnc4ccnn4c3)nc12 [Example 38, 1-(2-Aza-bicyclo[2.1.1]hex-2-yl)-8,8-dimethyl-3-pyrazolo[1,5-a]pyrimidin-6-yl-5,6-dihydro-8H-7-oxa-2,4,4b,9-tetraaza-fluorene]",6.55
12,"CCN(c1nc(-c2cnc(N)nc2)nc2c1nc1n2CCOC1(C)C)C1CCC1 [Example 62, 2-(2-aminopyrimidin-5-yl)-N-cyclobutyl-N-ethyl-6,6-dimethyl-8,9-dihydro-6H-[1,4]oxazino[4,3-e]purin-4-amine]",7.06
13,"CC1CCC(C)N1c1nc(-c2cnc(N)nc2)nc2c1nc1n2CCOC1(C)C (stereo not drawn) [Example 54, 5-[1-(2,5-Dimethyl-pyrrolidin-1-yl)-8,8-dimethyl-5,6-dihydro-8H-7-oxa-2,4,4b,9-tetraaza-fluoren-3-yl]-pyrimidin-2-ylamine]",6.55
14,"CC1(C)OCCn2c1nc1c(N3CC(O)C3)nc(-c3cnc4[nH]cnc4c3)nc12 [Example 109, 1-(2-(3H-imidazo[4,5-b]pyridin-6-yl)-6,6-dimethyl-8,9-dihydro-6H-[1,4]oxazino[4,3-e]purin-4-yl)azetidin-3-ol]",6.42
15,CC1(C)OCCn2c1nc1c(N3CC4CC3C4)nc(-c3cnc(N)c(C(F)(F)F)c3)nc12 [Example 150],6.95
16,"COC1CN(c2nc(-c3cnc4[nH]cnc4c3)nc3c2nc2n3CCOC2(C)C)C1 [Example 111, 2-(3H-imidazo[4,5-b]pyridin-6-yl)-4-(3-methoxyazetidin-1-yl)-6,6-dimethyl-8,9-dihydro-6H-[1,4]oxazino[4,3-e]purine]",6.05
17,"CC1(C)OCCn2c1nc1c(N3CC4CC3C4)nc(-c3cnc(N)c(F)c3)nc12 [Example 36, 5-[1-(2-Aza-bicyclo[2.1.1]hex-2-yl)-8,8-dimethyl-5,6-dihydro-8H-7-oxa-2,4,4b,9-tetraaza-fluoren-3-yl]-3-fluoro-pyridin-2-ylamine]",6.35

# Now those with a higher pKi, led by results:
row,pKi,SMILES
1,7.24,"CC1(C)OCCn2c1nc1c(N3CC4CC3C4)nc(-c3cnc4[nH]ccc4c3)nc12 [Example 23, 1-(2-Aza-bicyclo[2.1.1]hex-2-yl)-8,8-dimethyl-3-(1H-pyrrolo[2,3-b]pyridin-5-yl)-5,6-dihydro-8H-7-oxa-2,4,4b,9-tetraaza-fluorene]"
2,7.28,"Nc1ncc(-c2nc(N3CC4CC3C4)c3nc4n(c3n2)CCOC42CCC2)cn1 [Example 114, 5-(4-(2-azabicyclo[2.1.1]hexan-2-yl)-8,9-dihydrospiro[[1,4]oxazino[4,3-e]purine-6,1′-cyclobutan]-2-yl)pyrimidin-2-amine]"
3,7.38,"C[C@@H]1COC(C)(C)c2nc3c(N4CC5CC4C5)nc(-c4cnc(N)nc4)nc3n21 (single isomer, unassigned) [Example 96]"
4,7.46,"CC1(C)OCCn2c1nc1c(C3CC3)nc(-c3cnc(N)c(OC(F)F)c3)nc12 [Example 119, 5-(4-cyclopropyl-6,6-dimethyl-8,9-dihydro-6H-[1,4]oxazino[4,3-e]purin-2-yl)-3-(difluoromethoxy)pyridin-2-amine]"
5,7.49,CC(C)c1c[nH]c2ncc(-c3nc(N4CC(F)(F)C4)c4nc5n(c4n3)CCOC5(C)C)cc12 [Example 67]
6,7.50,"Cc1c[nH]c2ncc(-c3nc(N4CC5CCC4C5)c4nc5n(c4n3)CCOC5(C)C)cc12 (stereo not drawn) [Example 34, 1-(2-Aza-bicyclo[2.2.1]hept-2-yl)-8,8-dimethyl-3-(3-methyl-1H-pyrrolo[2,3-b]pyridin-5-yl)-5,6-dihydro-8H-7-oxa-2,4,4b,9-tetraaza-fluorene]"
7,7.67,"CC1(C)OCCn2c1nc1c(N3CC4CC3C4)nc(-c3cnc(N)nc3)cc12 [Example 116, 5-(9-(2-azabicyclo[2.1.1]hexan-2-yl)-1,1-dimethyl-3,4-dihydro-1H-pyrido[3′,4′:4,5]imidazo[2,1-c][1,4]oxazin-7-yl)pyrimidin-2-amine]"
8,7.75,"CN(C)c1nc(-c2cnc3[nH]cc(C#N)c3c2)nc2c1nc1n2CCCOC1 [Example 128, 5-(4-(dimethylamino)-6,8,9,10-tetrahydro-[1,4]oxazepino[4,3-e]purin-2-yl)-1H-pyrrolo[2,3-b]pyridine-3-carbonitrile]"
9,7.99,"Cc1c[nH]c2ncc(-c3nc(N4CCC5(COC5)C4)c4nc5n(c4n3)CCOC5(C)C)cc12 [Example 30, 8,8-Dimethyl-3-(3-methyl-1H-pyrrolo[2,3-b]pyridin-5-yl)-1-(2-oxa-6-aza-spiro[3.4]oct-6-yl)-5,6-dihydro-8H-7-oxa-2,4,4b,9-tetraaza-fluorene]"
10,8.01,"Cc1c[nH]c2ncc(-c3nc(N4CC(F)C4)c4nc5n(c4n3)CCOC5(C)C)cc12 [Example 4, 1-(3-Fluoro-azetidin-1-yl)-8,8-dimethyl-3-(3-methyl-1H-pyrrolo[2,3-b]pyridin-5-yl)-5,6-dihydro-8H-7-oxa-2,4,4b,9-tetraaza-fluorene]"
